Measured values from US20250352494A1, “TRANSDERMAL DELIVERY DEVICE FOR PEPTIDE DELIVERY AND METHODS OF USE” (PassPort Technologies, Inc., priority 2022, published 2025).
Ends that are not written are not given here.

Experiments:
in vivo [1] = conditions: for bioavailability: 2 mg; for PK Profile: Table 40
Method: (§1) Animal Studies in Rats. […] In vivo PK studies were performed in CD rats (Charles River Laboratories) according to IACUC-approved Animal Protocols. Each dosing formulation was prepared prior to the experiments. The patch was manufactured according to dry patch manufacturing procedure. The animals for transdermal applications were shaved 1 day before the dosing date. The transdermal microporation was applied using the Applicator and Porator. Then, the patch was placed to cover the porated area for 1 day or a designated duration. After the last blood sampling, the patch was collected, and the application site was wiped by paper or cotton to recover the remaining drug on the skin. The blood samples were collected from the tail vein and transferred into K2-EDTA tube at the designated sampling time. The samples were centrifuged at 4° C., and then plasma samples were obtained. All samples were stored at −80° C. freezer until bioassay.
The plasma samples were stayed at room temperature for 30 minutes. The plasma (50 μL) was transferred into a 2 mL Eppendorf tube (Protein LoBind), then add 50 μL of Acetonitrile/DMSO (4:1, v/v), and vortex the tube for a couple of seconds. The samples were centrifuged for 15 minutes at 3700 rpm, 4° C. The 150 μL of mobile phase A (0.1% formic acid in water) were put into a new tube, then 50 μL of the supernatant were transferred into the tube and the samples were vortexed for 5 minutes. The supernatant was pulled out and the solution was filtered through a 0.20 μm PTFE membrane into an autosampler vial (LCMSMS).

[2] = p3-Alcβ9-19 in mouse plasma (sELISA) after transdermal microporation patch or subcutaneous injection; format: in vivo, wild-type mice; conditions: mice plasma
Source text: (§2) Animal Studies in Mice. […] The hair was removed prior to the experiments. […] Exp. 21 (2008).
sELISA method for p3-Alcβ9-19 Analysis.

in vivo [3] = experiment: in vivo
Source text: as §2
IgG was purified with antigen-coupled resin and conjugated to biotin. Horseradish peroxidase-conjugated streptavidine was from Amersham/GE Healthcare (Cat #RPN1051, Little Chalfont, UK), and the tetramethylbenzidine (TMB) microwell peroxidase substrate system was from SeraCare Life Sciences Inc. (Cat #5120-0075, Milford, MA, USA). The mice were anesthetized by using 1% isoflurane, and CSF was collected from the cisterna magna in mice as described above, and then mice were sacrificed.
Dis. (2014) 39, 861-870, p3-Alcβ37- and p3-Alcβ40-specific sELISA systems, described in Hata et al “Decrease in p3-Alcβ37 and p3-Alcβ40, products of Alcadeinβ generated by γ-secretase cleavages, in aged monkeys and patients with Alzheimer's disease” Alzheimers Dement TRCI (2019) 5, 740-750.
The next day, the non-binding antibody was removed with wash buffer (0.05% Tween-20 in PBS). The plasma and CSF were diluted 200-fold and 20-fold with EIA buffer (1% BSA, 0.05% Tween-20), respectively. The sample solution was added to 96 well plates and stayed overnight at 4° C. The next day, after washing with wash buffer, purified biotinylated IgG dissolved in PBS was added to […] in each well, and the mixture was kept overnight at 4° C. The next day, the unreacted antibody was washed with wash buffer, streptavidin-HRP (1/5000 in PBS) was added, and the reaction was carried out at 4° C. for 6 to 8 hours. After washing with Wash buffer, TMB color-developing substrate was added, and the mixture was reacted at room temperature for 30 minutes under light-protection. The color development was stopped by adding 1 N H2SO4, and the samples were measured by a plate reader at 450 nm.

[4] = rats; reducing sugar formulation (Table 22); 24 hours after application; without microporation
Method: as §1, with “The transdermal microporation was applied using the Applicator and Porator.” left out

[5] = mouse, sc, 30 ug, subcutaneous injection 30 μg
[6] = mouse, cerebrospinal fluid, sc, 30 ug

HRGHQPPPEMA [p3-Alcβ9-19]
bioavailability (in vivo [1]; CD, rat, plasma, iv): 100% | bioavailability (in vivo [1]; CD, rat, plasma, oral): 0% | bioavailability (in vivo [1]; CD, rat, plasma, other: nasal): 0% | bioavailability (in vivo [1]; CD, rat, plasma, other: passive transdermal): 0% | Tmax (in vivo [1]; CD, rat, plasma, other: transdermal microporation): ~60 min | bioavailability (in vivo [1]; CD, rat, plasma, subcutaneous): 120 to 275% | aBA (absolute bioavailability) vs IV (2 mg/body) (in vivo [1]; Table 33, optimized formulations for immediate delivery, rats, 400 density, 4 mJ/filament): about 2000% | PK Profile (in vivo [1]; Intravenous injection): Bolus absorption | PK Profile (in vivo [1]; Nasal): No absorption | PK Profile (in vivo [1]; Oral): No absorption | PK Profile (in vivo [1]; Passive Transdermal): No absorption | PK Profile (in vivo [1]; Subcutaneous injection): Bolus absorption | Absorption (in vivo [1]; rats, 5 mg/head, oral, nasal, or passive transdermal routes): No absorption | Time by which blood concentrations disappeared (in vivo [1]; rats, SC injection): ≤ 1 h | Relationship between p3-Alcβ9-19 dose and AUC, FIG. 16 (in vivo [1]; rats, immediate delivery, up to 50 mg of p3-Alcβ9-19 (tested dose)): liner dose-dependency | PK profiles (in vivo [1]; rats, intravenous (IV) and subcutaneous (SC) injections): rapid absorption and quick elimination | AUC and Cmax versus p3-Alcβ9-19 dose, FIG. 19A/19B (in vivo [1]; rats, optimized patch): increased p3-Alcβ9-19 dose-dependently | Relationship between p3-Alcβ9-19 dose and AUC, FIG. 17 (in vivo [1]; rats, sustained delivery, up to 25 mg of p3-Alcβ9-19 (tested dose)): liner dose-dependency | BA (relative bioavailability) vs SC (30 μg/body) ([2]; subcutaneous injection 30 μg (reference)): 100% | Cmax [2, 5]: 25.5 ± 12.5 ng/mL | Tmax [2, 5]: 18.8 min | AUC(0-t) ([2]; mouse, sc, 30 ug, subcutaneous injection 30 μg, read-out: AUC0-360 (converted)): 9.84 ng·h/mL | BA (relative bioavailability) vs SC (30 μg/body) (in vivo [3]; mice CSF, subcutaneous injection 30 μg (reference)): 100% | AUC(0-t) (in vivo [3]; [6]): 5.01 ng·h/mL | Cmax (in vivo [3]; [6]): 14.9 ± 10.7 ng/mL | Tmax (in vivo [3]; [6]): 15 min | p3-Alcβ9-19 recovered (drug residual) [4]: about 100%
